Experimental data published in the supplement of paper PMC10307832.

Legend:
Assay in all cases: relative viability (nuclei count vs DMSO), 5 days (fraction); higher = more cells survive
CUDC-101 + Luminespib = compound: C#Cc1cccc(Nc2ncnc3cc(OC)c(OCCCCCCC(=O)NO)cc23)c1 [CUDC-101] + CCNC(=O)c1noc(-c2cc(C(C)C)c(O)cc2O)c1-c1ccc(CN2CCOCC2)cc1 [Luminespib] (partner 0.01 µM)
In short: (§1)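 Lung cancer cell lines, seeded in 1536-well plates, were treated the following day by pin tool with a single drug or with five library-drug doses (not always all listed) in √10 steps on top of a fixed anchor-drug dose. Cells were fixed and nuclei stained in one step after 5 days, and nuclei were counted. Relative viability is the nuclei count for treated wells divided by that for vehicle wells, reported as medians of duplicate plates.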

[1] = compound: C1=CC=C2C(=C1)N=C(S2)C(C#N)C3=NC(=NC=C3)NCCC4=CN=CC=C4 + CS(=O)(=O)N1CCN(Cc2cc3nc(-c4cccc5[nH]ncc45)nc(N4CCOCC4)c3s2)CC1 [Pictilisib] (partner 1 µM)
In short: as §1

[2] = compound: C1=CC=C2C(=C1)N=C(S2)C(C#N)C3=NC(=NC=C3)NCCC4=CN=CC=C4 + NC(=O)Nc1cc(-c2cccc(F)c2)sc1C(=O)N[C@H]1CCCNC1 [AZD7762] (partner 0.2 µM)
In short: as §1

NVP-TAE684 + Pemetrexed = compound: COc1cc(N2CCC(N3CCN(C)CC3)CC2)ccc1Nc1ncc(Cl)c(Nc2ccccc2S(=O)(=O)C(C)C)n1 [NVP-TAE684] + Nc1nc2[nH]cc(CCc3ccc(C(=O)N[C@@H](CCC(=O)O)C(=O)O)cc3)c2c(=O)[nH]1 [Pemetrexed] (partner 0.2 µM)
In short: as §1

Cell Line | relative viability (CUDC-101 + Luminespib; first compound 0.01 µM) | relative viability (CUDC-101 + Luminespib; first compound 0.03162 µM) | relative viability (CUDC-101 + Luminespib; first compound 0.1 µM) | relative viability (CUDC-101 + Luminespib; first compound 0.3162 µM) | relative viability (CUDC-101 + Luminespib; first compound 1 µM) | relative viability ([1]; first compound 0.01581 µM) | relative viability ([1]; first compound 0.05 µM) | relative viability ([1]; first compound 0.1581 µM) | relative viability ([1]; first compound 0.5 µM) | relative viability ([2]; first compound 0.005 µM) | relative viability ([2]; first compound 0.01581 µM) | relative viability ([2]; first compound 0.05 µM) | relative viability ([2]; first compound 0.1581 µM) | relative viability ([2]; first compound 0.5 µM) | relative viability (NVP-TAE684 + Pemetrexed; first compound 0.2 µM) | relative viability (NVP-TAE684 + Pemetrexed; first compound 0.6325 µM) | relative viability (NVP-TAE684 + Pemetrexed; first compound 2 µM) | relative viability ([1]; first compound 0.005 µM)
NCI-H2170 | 0.626 | 0.286 | 0.719 | 0.471 | 0.465 | 0.298 | 0.292 | 0.394 | 0.32 | 0.861 | 0.995 | 0.861 | 0.968 | 0.744 | 0.274 | 0.27 | 0.228 | –
NCI-H1651 | 0.787 | 0.77 | 0.811 | 0.991 | 0.839 | 0.585 | 0.68 | 0.815 | 0.565 | 0.428 | 0.463 | 0.533 | 0.509 | 0.471 | 0.594 | 0.566 | 0.565 | 0.364
NCI-H460 | 0.0424 | 0.0301 | 0.0366 | 0.0315 | 0.0288 | 0.306 | 0.358 | 0.506 | 0.353 | 0.508 | 0.641 | 0.672 | 0.69 | 0.43 | 0.0526 | 0.0587 | 0.0483 | 0.355
NCI-H1734 | 0.206 | 0.185 | 0.193 | 0.167 | 0.157 | 0.488 | 0.406 | 0.587 | 0.473 | 0.443 | 0.658 | 0.615 | 0.566 | 0.514 | 0.47 | 0.437 | 0.348 | 0.439
NCI-H1915 | 0.908 | 0.787 | 0.774 | 0.788 | 0.551 | 0.929 | 0.923 | 1.1 | 0.879 | – | 0.679 | 0.698 | 0.693 | 0.699 | 0.537 | 0.463 | 0.472 | 0.933
NCI-H1975 | 0.336 | 0.155 | 0.254 | 0.351 | 0.213 | 0.28 | 0.284 | 0.307 | 0.255 | 0.639 | 0.635 | 0.711 | 0.743 | 0.506 | 0.297 | 0.283 | 0.236 | 0.262
NCI-H2087 | 0.174 | 0.186 | 0.176 | 0.177 | 0.198 | 0.856 | 0.883 | 1.04 | 0.92 | 1.42 | 1.39 | 1.41 | 1.45 | 1.06 | 0.679 | 0.707 | 0.57 | 0.873
LCLC-97TM1 | 0.849 | 0.857 | 0.771 | 0.765 | 0.502 | 0.179 | 0.156 | 0.181 | 0.236 | 0.153 | 0.192 | 0.342 | 0.291 | 0.21 | 0.184 | 0.144 | 0.114 | 0.215
